Results published in patent publication US12091652B2, “Ammonia-oxidizing Nitrosomonas eutropha strain D23” (priority 2014, dated 2024).
Like-named read-outs stand apart in the source and are kept apart here.

Test system: Nitrosomonas eutropha D23
Test: Antibiotic susceptibility (MIC) of N. eutropha D23 cultures in vitro
Assay type: cell-based
Settings: for MIC Interpretive Criteria (phenotype of N. eutropha D23): CLSI criteria, MIC levels of the outcome stand in parentheses in the cell; for MIC: 30° C., 48-72 hr, OD600, two-fold dilution series
Description: The activities of five antibiotics, each representing a different antibiotic class, were tested against Nitrosomonas eutropha D23. The antibiotics tested included clindamycin, erythromycin, gentamicin, piperacillin with or without the β-lactamase inhibitor Tazobactam, and tetracycline. These were chosen based on the Clinical and Laboratory Standards Institute (CLSI) recommendations for routine testing and reporting of phylogenetically-related proteobacteria (Pseudomonas aeruginosa) listed under Non-fastidious organisms and Non-Enterobacteriaceae in the CLSI 24th Informational Supplement (M100-S24), and also included topical or systemic antimicrobial agents commonly used against acne, such as clindamycin or tetracycline. Studies with clindamycin were included even though this antibiotic was not expected to be very effective at inhibiting Nitrosomonas, as is the case for other aerobic Gram-negative bacteria.
Minimal Inhibitory Concentrations (MICs) were determined by culturing N. eutropha D23 in decreasing concentrations of each of the five antibiotics. Bacterial growth at 30° C. was monitored for 48-72 hr by determining optical density (OD600) values in samples collected at 24 hr intervals. MIC values were identified as the lowest antibiotic concentration from a two-fold dilution series leading to no increase in OD600 measurements for the 2 or 3-day incubation period. The N. eutropha D23 phenotype in each antibiotic test was determined as Susceptible, Intermediate, or Resistant according to the MIC Interpretive Criteria provided by the CLSI. […] Clindamycin resistance observed for N. eutropha D23 is in agreement with previous reports for natural resistance of aerobic Gram-negative bacteria to this antibiotic. In addition to testing the β-lactam antibiotic piperacillin alone, the broad range β-lactamase inhibitor Tazobactam was also tested in combination with piperacillin to assess the possible expression of β-lactamase(s) by N. eutropha D23.

[1] = Nitrosomonas eutropha, D23, read-out: MIC

Molecule	MIC Interpretive Criteria (phenotype of N. eutropha D23)	MIC [1] [µg/mL]	further results
CCN1CCN(C(=O)N[C@@H](C(=O)N[C@@H]2C(=O)N3[C@@H]2SC(C)(C)[C@@H]3C(=O)O)c2ccccc2)C(=O)C1=O [Piperacillin]	Intermediate (32-64 μg/ml)	64	MIC Interpretive Criteria (phenotype of N. eutropha D23) (listed as piperacillin): intermediate resistance
C[C@]1(Cn2ccnn2)[C@H](C(=O)O)N2C(=O)C[C@H]2S1(=O)=O [Tazobactam]			effect of adding the β-lactamase inhibitor to piperacillin on N. eutropha D23 susceptibility (in combination with piperacillin): no increase in N. eutropha D23 susceptibility
CC[C@H]1OC(=O)[C@H](C)[C@@H](O[C@H]2C[C@@](C)(OC)[C@@H](O)[C@H](C)O2)[C@H](C)[C@@H](O[C@@H]2O[C@H](C)C[C@H](N(C)C)[C@H]2O)[C@](C)(O)C[C@@H](C)C(=O)[C@H](C)[C@@H](O)[C@]1(C)O [Erythromycin]	Susceptible (≤0.5 μg/ml)	0.16	MIC Interpretive Criteria (phenotype of N. eutropha D23) (listed as erythromycin): susceptibility
CN(C)[C@@H]1C(O)=C(C(N)=O)C(=O)[C@@]2(O)C(O)=C3C(=O)c4c(O)cccc4[C@@](C)(O)[C@H]3C[C@@H]12 [Tetracycline]		8	
Piperacillin/Tazobactam	Intermediate		MIC: 64/4
CCC[C@@H]1C[C@@H](C(=O)N[C@@H]([C@H]2O[C@H](SC)[C@H](O)[C@@H](O)[C@H]2O)[C@H](C)Cl)N(C)C1 [Clindamycin]		> 16	
Gentamicin	Susceptible (≤4 μg/ml)		MIC: 0.25 µg/mL; MIC Interpretive Criteria (phenotype of N. eutropha D23) (listed as gentamicin): susceptibility
